The record followed here is patent US11578055B2, “Triazacyclododecansulfonamide (“TCD”)-based protein secretion inhibitors” (KEZAR LIFE SCIENCES, priority 2018, dated 2023).

Data set [1] relates to PD1 signal sequence plus 10 amino acids fused to Gaussia Luciferase (PD1-ss+10aa/Gaussia Luciferase). In words: Dox Induced PD1-ss-Gluc Assay. Particulars: 24 hr, 293FRT/TO; read-out: 24 hr Dox Inducible PD1ssGluc 293FRT/TO: Mean IC50. It counts as cell-based. In outline: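 Stable Flp-In 293 T-REx line expressing the fusion under tetracycline-inducible control, plated the day before assay. Compound dilutions added with doxycycline and incubated at 37 °C, 5% CO2; unspecified stereocentres mean data refer to stereoisomer mixtures.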

Data set [2] concerns full length TNFα (amino acids 1-233) fused to Gaussia Luciferase. The data set can be described thus: Dox Induced TNFα-FL-Gluc Assay. It is filed as cell-based. Particulars: 24 hr, 293FRT/TO; read-out: 24 hr Dox Inducible TNFaFLGluc 293FRT/TO: Mean IC50. In outline:
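Stable Flp-In 293 T-REx line expressing doxycycline-inducible full-length TNFα fused to Gaussia luciferase; cells plated the day before, then treated with compound dilutions in doxycycline-containing medium at 37° C, 5% CO2. Unspecified stereocentres mean stereoisomer mixtures were tested.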

Data set [3] relates to multiple myeloma cell line NCl-H929. In words: H929 Cell Viability Assay. It counts as cell-based, human. Particulars: Homo sapiens, NCI-H929, 48 h, H929, read-out: 48 hr H929 Viability Celltiter-Glo: Mean EC50. The method in brief:
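NCI-H929 myeloma cells in RPMI 1640 with 10% FBS were treated with compound dilutions for 48 h at 37 °C, and viability was then read by CellTiter-Glo luminescence. Compounds drawn without stereochemistry were tested as stereoisomer mixtures.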
Background: Cellular ATP, detected with luciferase, serves as a proxy for viable cell number.

For data set [4], the system named is multiple myeloma cell line U266B1. In words: U266 Cell Viability Assay. Particulars: Homo sapiens, U-266; 48 hr, U266; read-out: 48 hr U266 Viability Celltiter-Glo: Mean EC50. It is filed as cell-based, human. In outline:
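U266B1 myeloma cells in RPMI 1640 with 10% FBS were treated with compound dilutions for 48 h at 37° C, 5% CO2. Viability was read as CellTiter-Glo luminescence. Data for structures drawn without stereochemistry refer to stereoisomer mixtures.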

Data set [5] can be described thus: In Vitro Microsome Stability Assay (human). Particulars: human, 30 min, NADPH. It counts as in vitro ADME. In outline: (§1)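 The value reported is the percentage of parent left after 30 min, calculated from analyte/IS peak-area ratios relative to time zero by LC-MS/MS. Incubations ran at 37° C in 0.1 M potassium phosphate with NADPH and microsomes (stock 20 mg/mL), with compound added from a 0.25 mM DMSO stock. Acetonitrile containing IS stopped the reactions.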

The nature of data set [6]: In Vitro Microsome Stability Assay (mouse). Particulars: mouse, 30 min, NADPH. It counts as in vitro ADME. The method in brief:
as §1

A short description of data set [7]: In Vitro Microsome Stability Assay (rat). It counts as in vitro ADME. Particulars: rat, 30 min, NADPH. In outline:
as §1

Data set [8] in a line: In Vitro Microsome Stability Assay (monkey). It is filed as in vitro ADME. Particulars: monkey, 30 min, NADPH. In outline:
as §1

Structures are written as SMILES. Some results are limits rather than exact numbers.

Regarding `C=C1CN(S(=O)(=O)c2ccc(N(C)C)cc2)CCCN(CC2CCCCC2)CCCN(S(=O)(=O)N2CCc3cc(-c4ccccc4)ccc3C2)C1` [A63, 4-((9-(cyclohexylmethyl)-3-methylene-5-((6-phenyl-3,4-dihydroisoquinolin-2(1H)-yl)sulfonyl)-1,5,9-triazacyclododecan-1-yl)sulfonyl)-N,N-dimethylaniline], the values for the IC50 in data set [1] and in data set [2] were 43.6 nM and 1.87 µM, respectively. Further, the EC50 (as a rule, the concentration that produces a half-maximal response) in data set [3] was 7.43 µM; in data set [4], above 25 µM. Further, the “Liver Microsome Stability-% Left after 30 min w/ NADPH (%) Human” value (shortened to “Liver Microsome Stability-% Left … (%) Human”) in data set [5] came out at 76.4%. For the same compound, in data set [6], the “Liver Microsome Stability-% Left after 30 min w/ NADPH (%) Mouse” value (shortened to “Liver Microsome Stability-% Left … (%) Mouse”) amounted to 85.2%. Further, the “Liver Microsome Stability-% Left after 30 min w/ NADPH (%) Rat” value (shortened to “Liver Microsome Stability-% Left … (%) Rat”) in data set [7] turned out to be 88.2%. In addition, the “Liver Microsome Stability-% Left after 30 min w/ NADPH (%) Monkey” value (“Liver Microsome Stability-% Left … (%) Monkey” for short) in data set [8] is recorded as 84.4%.

With `C=C1CN(S(=O)(=O)c2ccc(N(C)C)cc2)CCCN(CC2CCCCC2)CCCN(S(=O)(=O)N2CCC(C3CCCC3)CC2)C1` [A64, 4-{[9-(cyclohexylmethyl)-5-[(4-cyclopentylpiperidin-1-yl)sulfonyl]-3-methylidene-1,5,9-triazacyclododecan-1-yl]sulfonyl}-N,N-dimethylaniline], the IC50 was found to be 75 nM in data set [1] and 3.29 µM in data set [2]. Also, the figures for the EC50 in data set [3] and in data set [4] were 6.4 µM and above 25 µM, respectively. Also, the “Liver Microsome Stability-% Left … (%) Human” value in data set [5] is 53.3%. For the same compound, the “Liver Microsome Stability-% Left … (%) Mouse” value in data set [6] came out at 53.1%. For the same compound, in data set [7], the “Liver Microsome Stability-% Left … (%) Rat” value came out at 63.1%. In data set [8], the “Liver Microsome Stability-% Left … (%) Monkey” value was 48%.

With `C=C1CN(S(=O)(=O)c2ccc(N(C)C)cc2)CCCN(CC2CCCCC2)CCCN(S(=O)(=O)N2CCC(C3CCCCC3)CC2)C1` [A65, 4-{[9-(cyclohexylmethyl)-5-[(4-cyclohexylpiperidin-1-yl)sulfonyl}-3-methylidene-1,5,9-triazacyclododecan-1-yl]sulfonyl}-N,N-dimethylaniline], the IC50 in data set [1] came out at 154 nM; in data set [2], 8.72 µM. In addition, the EC50 in data set [3] and in data set [4] was above 25 µM each time. For the same compound, in data set [5], the “Liver Microsome Stability-% Left … (%) Human” value turned out to be 53.1%. Also, the “Liver Microsome Stability-% Left … (%) Mouse” value in data set [6] was 73.4%. Moreover, in data set [7], the “Liver Microsome Stability-% Left … (%) Rat” value is recorded as 78%. Besides, the “Liver Microsome Stability-% Left … (%) Monkey” value in data set [8] is reported as 57.8%.

For the compound `C=C1CN(S(=O)(=O)c2ccc(N(C)C)cc2)CCCN(CC2CCCCC2)CCCN(S(=O)(=O)N2CCC(OC(C)C)CC2)C1` [A66, 4-{[9-(cyclohexylmethyl)-3-methylidene-5-{[4-(propan-2-yloxy)piperidin-1-yl]sulfonyl}-1,5,9-triazacyclododecan-1-yl]sulfonyl}-N,N-dimethylaniline], the IC50 amounted to 188 nM in data set [1] and 3.5 µM in data set [2]. Further, the EC50 was 9.21 µM in data set [3] and above 25 µM in data set [4]. Further, in data set [5], the “Liver Microsome Stability-% Left … (%) Human” value is given as 0.13%. Moreover, the “Liver Microsome Stability-% Left … (%) Mouse” value in data set [6] came out at 0.02%. For the same compound, in data set [7], the “Liver Microsome Stability-% Left … (%) Rat” value is reported as 0.39%. The “Liver Microsome Stability-% Left … (%) Monkey” value in data set [8] came out at 0.35%.

Take `C=C1CN(S(=O)(=O)c2ccc(N(C)C)cc2)CCCN(CC2CCCCC2)CCCN(S(=O)(=O)N2CC=C(C3=CCCC3)CC2)C1` [A67, 4-{[9-(cyclohexylmethyl)-5-{[4-(cyclopent-1-en-1-yl)-1,2,3,6-tetrahydropyridin-1-yl]sulfonyl}-3-methylidene-1,5,9-triazacyclododecan-1-yl]sulfonyl}-N,N-dimethylaniline]: the IC50 in data set [1] is 40.8 nM; in data set [2] it was 0.937 µM. For the same compound, the EC50 in data set [3] was 2.4 µM; in data set [4], above 25 µM. Further, the “Liver Microsome Stability-% Left … (%) Human” value in data set [5] worked out at 33.2%. Besides, the “Liver Microsome Stability-% Left … (%) Mouse” value in data set [6] worked out at 28%. The “Liver Microsome Stability-% Left … (%) Rat” value in data set [7] is 45.4%. The “Liver Microsome Stability-% Left … (%) Monkey” value in data set [8] amounted to 27.6%.

For the compound `C=C1CN(S(=O)(=O)c2ccc(N(C)C)cc2)CCCN(CC2CCCCC2)CCCN(S(=O)(=O)N2CC=C(C3=CCCCC3)CC2)C1` [A68, 4-[(5-{[4-(cyclohex-1-en-1-yl)-1,2,3,6-tetrahydropyridin-1-yl]sulfonyl}-9-(cyclohexylmethyl)-3-methylidene-1,5,9-triazacyclododecan-1-yl)sulfonyl}-N,N-dimethylaniline], the IC50 was found to be 156 nM in data set [1] and 6.44 µM in data set [2]. Also, the EC50 in data set [3] and in data set [4] was above 25 µM each time. Besides, the “Liver Microsome Stability-% Left … (%) Human” value in data set [5] is given as 50.5%. In addition, the “Liver Microsome Stability-% Left … (%) Mouse” value in data set [6] is recorded as 55.1%. In data set [7], the “Liver Microsome Stability-% Left … (%) Rat” value is given as 57.1%. The “Liver Microsome Stability-% Left … (%) Monkey” value in data set [8] is recorded as 57.1%.

Turning to `C=C1CN(S(=O)(=O)c2ccc(N(C)C)cc2)CCCN(CC2CCCCC2)CCCN(S(=O)(=O)N2CC=C(c3cccc(Cl)c3)CC2)C1` [A69, 4-[(5-{[4-(3-chlorophenyl)-1,2,3,6-tetrahydropyridin-1-yl]sulfonyl}-9-(cyclohexylmethyl)-3-methylidene-1,5,9-triazacyclododecan-1-yl)sulfonyl]-N,N-dimethylaniline], the IC50 in data set [1] is 136 nM; in data set [2], above 25 µM. Also, the EC50 in data set [3] and in data set [4] was above 25 µM throughout. Also, the “Liver Microsome Stability-% Left … (%) Human” value in data set [5] came to 63%. Moreover, the “Liver Microsome Stability-% Left … (%) Mouse” value in data set [6] was 64.6%. In data set [7], the “Liver Microsome Stability-% Left … (%) Rat” value stood at 74.3%. The “Liver Microsome Stability-% Left … (%) Monkey” value in data set [8] stood at 58.2%.

In the case of `C=C1CN(S(=O)(=O)c2ccc(N(C)C)cc2)CCCN(CC2CCCCC2)CCCN(S(=O)(=O)N2CCc3cc(C#N)ccc3C2)C1` [A70, 2-{[9-(cyclohexylmethyl)-5-[4-(dimethylamino)benzenesulfonyl]-3-methylidene-1,5,9-triazacyclododecan-1-yl]sulfonyl}-1,2,3,4-tetrahydroisoquinoline-6-carbonitrile], the IC50 worked out at 46.1 nM in data set [1] and 1.3 µM in data set [2]. Besides, the EC50 in data set [3] was 3.02 µM; in data set [4] it was above 25 µM. Also, the “Liver Microsome Stability-% Left … (%) Human” value in data set [5] was 1.36%. The “Liver Microsome Stability-% Left … (%) Mouse” value in data set [6] came out at 3.14%. Moreover, the “Liver Microsome Stability-% Left … (%) Rat” value in data set [7] worked out at 6.75%. For the same compound, in data set [8], the “Liver Microsome Stability-% Left … (%) Monkey” value came to 3.26%.

On to `C=C1CN(S(=O)(=O)c2ccc(N(C)C)cc2)CCCN(CC2CCCCC2)CCCN(S(=O)(=O)N2CCc3cc(OC)ccc3C2)C1` [A71, 4-{[9-(cyclohexylmethyl)-5-[(6-methoxy-1,2,3,4-tetrahydroisoquinolin-2-yl)sulfonyl]-3-methylidene-1,5,9-triazacyclododecan-1-yl]sulfonyl}-N,N-dimethylaniline], for which the IC50 in data set [1] came out at 63.3 nM; in data set [2], 2.01 µM. Also, the EC50 is 7.72 µM in data set [3] and above 25 µM in data set [4]. The “Liver Microsome Stability-% Left … (%) Human” value in data set [5] is 5.55%. Moreover, in data set [6], the “Liver Microsome Stability-% Left … (%) Mouse” value is 11.5%. In addition, in data set [7], the “Liver Microsome Stability-% Left … (%) Rat” value is 17.2%. Further, the “Liver Microsome Stability-% Left … (%) Monkey” value in data set [8] turned out to be 6.75%.

Turning to `C=C1CN(S(=O)(=O)c2ccc(N(C)C)cc2)CCCN(CC2CCCCC2)CCCN(S(=O)(=O)N2CCC(c3ccc(Cl)cc3)CC2)C1` [A72, 4-[(5-{[4-(4-chlorophenyl)piperidin-1-yl]sulfonyl}-9-(cyclohexylmethyl)-3-methylidene-1,5,9-triazacyclododecan-1-yl)sulfonyl]-N,N-dimethylaniline], the IC50 in data set [1] was found to be 96.2 nM; in data set [2] it was 6.97 µM. The EC50 in data set [3] is 10.3 µM; in data set [4], above 25 µM. In addition, the “Liver Microsome Stability-% Left … (%) Human” value in data set [5] amounted to 62.5%. In addition, in data set [6], the “Liver Microsome Stability-% Left … (%) Mouse” value stood at 43.3%. The “Liver Microsome Stability-% Left … (%) Rat” value in data set [7] stood at 54.6%. Further, the “Liver Microsome Stability-% Left … (%) Monkey” value in data set [8] was 53.2%.
